Experimental data as given in patent US11667602B2, “Compounds and their use” (AstraZeneca AB, priority 2020, dated 2023).

Tests used:
[1] = Human Liver Microsomal Stability (Test C); assay type: in vitro ADME; conditions: human, liver microsomes
How it was run: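 Human liver microsome incubation per the Wernevik et al. integrated DMPK panel protocol. Intrinsic clearance reported as CLint in μl/min/mg protein, averaged arithmetically over repeat runs.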

[2] = Rat Hepatocyte Stability (Test E); assay type: in vitro ADME; conditions: rat, hepatocytes, geometric mean if run multiple times
How it was run: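 Run per the published AstraZeneca-type rat hepatocyte stability protocol (Wernevik et al. panel). Values are mean intrinsic clearance, Clint in μl/min/10^6 cells; geometric mean used for repeated runs.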

[3] = target: T1, human RXFP1 (Homo sapiens, UniProt Q9HBX9); experiment: Human RXFP1 cGMP Production Assay (Test G); assay type: cell-based; parameters: expressed in transfected cells; conditions: HEK293s cells stably transfected with human RXFP1; Green GENIe cGMP biosensor, area under curve 0 to 90 min
T1 sequence (Q9HBX9 1-757): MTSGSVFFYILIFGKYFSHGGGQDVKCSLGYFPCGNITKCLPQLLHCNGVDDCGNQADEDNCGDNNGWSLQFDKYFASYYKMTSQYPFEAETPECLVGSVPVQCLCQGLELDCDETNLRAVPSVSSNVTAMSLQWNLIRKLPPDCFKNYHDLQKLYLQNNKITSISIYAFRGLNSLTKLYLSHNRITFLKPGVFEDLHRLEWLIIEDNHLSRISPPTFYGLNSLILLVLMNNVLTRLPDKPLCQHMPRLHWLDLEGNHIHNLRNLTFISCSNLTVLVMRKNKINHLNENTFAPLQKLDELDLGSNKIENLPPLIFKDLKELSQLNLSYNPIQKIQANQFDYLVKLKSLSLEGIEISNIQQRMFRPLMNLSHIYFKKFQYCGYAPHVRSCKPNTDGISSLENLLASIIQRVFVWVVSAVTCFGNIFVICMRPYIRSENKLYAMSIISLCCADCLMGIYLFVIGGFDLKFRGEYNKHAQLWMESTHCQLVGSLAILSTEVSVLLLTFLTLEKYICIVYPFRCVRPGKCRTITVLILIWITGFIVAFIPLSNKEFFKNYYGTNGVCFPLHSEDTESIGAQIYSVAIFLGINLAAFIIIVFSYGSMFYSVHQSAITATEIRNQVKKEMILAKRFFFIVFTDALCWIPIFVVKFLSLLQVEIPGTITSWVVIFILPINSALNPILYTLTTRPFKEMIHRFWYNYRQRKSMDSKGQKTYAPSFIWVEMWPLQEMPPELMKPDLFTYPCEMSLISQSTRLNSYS
Text: Human RXFP1 cGMP Production Assay (Test G)
To profile compounds for RXFP1 agonist activity with respect to cGMP production, the Green GENIe cGMP Assay (Montana Molecular; catalogue number D800G) was employed. The assay is based on an nmNeonGreen fusion protein fluorescent biosensor delivered to mammalian cells in a BacMam vector. Fluorescence is reduced when cGMP is bound to the biosensor.
(§1) Cells: HEK293s cells stably transfected with human RXFP1 in pIRESneo3 was employed.
Day 1 • 1. Cells were splitted one day ahead of transduction and seeded to 63 000 cells/cm2 in DMEM medium with 10% FBS without antibiotics in a tissue culture flask.
Day 2 • 2. […] A viral transduction mastermix was prepared by mixing reagents in the following proportions for a single well: • 6 μL GENIe BacMAM vector • 0.2 μL 500 mM sodium butyrate • 13.8 μL DMEM medium with 10% FBS • 20 μL total volume • 5. Cells and transduction mastermix were mixed in proportions 30 μL cells and 20 μL mastermix for a single well. • 6. […] Plate was incubated in the dark at 37° C., 5% CO2 for 24 h.
Day 3 • 8. Medium was removed from plates using a Bluewasher (BluCatBio). • 9. 20 μL assay buffer was added with a Multidrop Combi (ThermoFisher). • 10. Plate was incubated in the dark at room temperature for 30 min prior to assaying. • 11. Plates were assayed using a FLIPR Tetra (Molecular Devices): 10 μL compound diluted with assay buffer was added to each well by the FLIPR Tetra and measuring green fluorescence over time for up to 3 h.
Data was processed using Screener software (Genedata A G). After subtraction of background fluorescence (before addition of compounds), area under curve values from 0 to 90 min after compound addition was used for calculation of responses.

[4] = target: T1, human RXFP1; experiment: Human RXFP1 Phospho-ERK Assay (Test H); assay type: cell-based; parameters: expressed in transfected cells; conditions: HEK293s cells stably transfected with human RXFP1; phospho-ERK (Thr202/Tyr204) HTRF, 5 min stimulation; read-out: Test H phospo-ERK assay EC50
Text: as §1

Row | SMILES | microsomal CLint [1] [µL/min/mg] | hepatocyte CLint [2] [µL/min/1e6 cells] | EC50 [3] [nM] | EC50 [4] [nM]
1 | COc1cc(F)c(O[C@H]2CC[C@@](C)(C(=O)O)CC2)cc1C(=O)N[C@@H]1[C@H]2CC[C@H](C2)[C@@H]1C(=O)Nc1cccc(S(=O)(=O)C(F)(F)F)c1 [Example 208, (1S,4s)-4-(2-Fluoro-4-methoxy-5-(((1S,2R,3S,4R)-3-((3-((trifluoromethyl)sulfonyl)phenyl)carbamoyl)bicyclo[2.2.1]heptan-2-yl)carbamoyl)phenoxy)-1-methylcyclohexane-1-carboxylic acid] | 54 | 35 | 9.3 | 1.2
2 | COc1cc(F)c(O[C@H]2CC[C@@](C)(C(=O)O)CC2)cc1C(=O)N[C@@H]1[C@H]2CC[C@H](C2)[C@@H]1C(=O)Nc1ccc(F)c(S(F)(F)(F)(F)F)c1 [Example 353] | 61 | 23 | 3.7 | 0.36
3 | COc1cc(F)c(O[C@H]2CC[C@@H](C(=O)O)CC2)cc1C(=O)N[C@@H]1[C@H]2CC[C@H](C2)[C@@H]1C(=O)Nc1ccc(F)c(S(F)(F)(F)(F)F)c1 [Example 433] | 43 | 17 | 19 | 
4 | COc1cc(F)c(-c2ccc(C(=O)O)cc2)cc1C(=O)N[C@H]1[C@@H](C(=O)Nc2cccc(S(=O)(=O)C(F)(F)F)c2)[C@@H]2C=C[C@H]1C2 (single isomer, unassigned) [Example 552] | 7.2 | 16 | 300 | 81
